According to article PMC3493529, “Molecular and Pharmacological Characterization of Serotonin 5-HT2α and 5-HT7 Receptors in the Salivary Glands of the Blowfly Calliphora vicina” (PLoS ONE, 2012):
Structures can show the parent of a compound that is named as a salt. Where two headings read alike, the source gives them in different places.

What was measured:
Cv5-HT2α [1] = target: T1, Cv5-HT2α (Calliphora vicina, UniProt I7JA47); assay: Ca2+ signals (Fluo-4) in Cv5-HT2α-expressing HEK 293 cells, agonists; format: cell-based; details: for Cv5-HT2α EC50 / Cv5-HT2α log EC50 / EC50: Cv5-HT2α-expressing HEK 293 cells
Procedure: (§1) We applied a previously established protocol to generate cell lines that constitutively expressed either Cv5-HT2α or Cv5-HT7. […] (flpTM cells, provided by Sibion biosciences GmbH, Jülich, Germany). Approximately 8 µg of the respective expression vectors were introduced into ∼4×10^5 cells by a modified calcium-phosphate method. Stably transfected cells were selected in the presence of the antibiotics Blasticidin (0.1 mg/ml; Cv5-HT2α) or G418 (0.8 mg/ml; Cv5-HT7). Expression of Cv5-HT2α and Cv5-HT7 was monitored by Western blotting with commercially available anti-His antibodies (anti-6x His Epitope Tag; Rockland Immunochemicals Inc, Gilbertsville, USA) and anti-HA antibodies (clone 3F10; Roche, Penzberg, Germany), respectively.
(§2) The ability of Cv5-HT2α to induce Ca^2+ signals in the transfected cell line was measured with the Ca^2+-sensitive dye Fluo-4. Similarly, Cv5-HT7-induced cAMP production was indirectly monitored by the cAMP-dependent activation of the cyclic nucleotide-gated ion channel in flpTM cells (see above). The cyclic nucleotide-gated ion channel is permeable to Ca^2+ ions and thus an increase in [cAMP]i leads to an influx of Ca^2+ ions, which can be detected with Fluo-4. […] After 1 h, the loading solution was substituted for dye-free ES. To inhibit cAMP hydrolysis in Cv5-HT7-expressing cells, ES containing 100 µM isobutylmethylxanthine (IBMX) was used. Plates were transferred into a fluorescence reader (FLUOstar Omega; bmg, Offenburg, Germany) and Fluo-4 fluorescence was monitored. […] Fluorescence emission was detected at 520 nm. Once the basal fluorescence in each well had reached a stable value, various concentrations of the respective ligands were added. The resulting changes in Fluo-4 fluorescence were recorded automatically.

Cv5-HT7 [2] = target: T2, Cv5-HT7 (Calliphora vicina, UniProt I7IA71); assay: Inhibition of 5-HT-induced Fluo-4 signals in Cv5-HT7-expressing cells; format: cell-based
Procedure: as §1, with “Cv5-HT7. For Cv5-HT2α expression, human embryonic kidney cells (HEK 293; ECACC, Salisbury, UK) were chosen.” for “Cv5-HT7.”
(§3) The ability of Cv5-HT2α to induce Ca^2+ signals in the transfected cell line was measured with the Ca^2+-sensitive dye Fluo-4. Similarly, Cv5-HT7-induced cAMP production was indirectly monitored by the cAMP-dependent activation of the cyclic nucleotide-gated ion channel in flpTM cells (see above). The cyclic nucleotide-gated ion channel is permeable to Ca^2+ ions and thus an increase in [cAMP]i leads to an influx of Ca^2+ ions, which can be detected with Fluo-4. Cells were grown in 96-well plates to a density of ∼3×10^4 (Cv5-HT2α) or 1.5×10^4 (Cv5-HT7) and then incubated in extracellular solution (ES in mM: 120 NaCl, 5 KCl, 2 CaCl2, 2 MgCl2, 10 glucose, 10 HEPES, pH 7.4) containing 3 mM probenecid, 0.02% (w/v) Pluronic® F-127 (Sigma) and 2 µM Fluo-4AM (Invitrogen). After 1 h, the loading solution was substituted for dye-free ES. To inhibit cAMP hydrolysis in Cv5-HT7-expressing cells, ES containing 100 µM isobutylmethylxanthine (IBMX) was used. Plates were transferred into a fluorescence reader (FLUOstar Omega; bmg, Offenburg, Germany) and Fluo-4 fluorescence was monitored. The excitation wavelength was 485 nm. Fluorescence emission was detected at 520 nm. Once the basal fluorescence in each well had reached a stable value, various concentrations of the respective ligands were added. The resulting changes in Fluo-4 fluorescence were recorded automatically.
(§4) Changes in Ca^2+-dependent Fluo-4 signals were registered automatically. Data represent the means±SD of eight replicates. […] Relative fluorescence (%) is normalized to the values obtained with 100 nM 5-HT in the absence of antagonists. […] Relative fluorescence (%) is normalized to the values obtained with 6 nM 5-HT in the absence of antagonists.

Cv5-HT2α [3] = target: T1, Cv5-HT2α; assay: Inhibition of 5-HT-induced Ca2+ signals in Cv5-HT2α-expressing cells; format: cell-based
Procedure: as §1, with “Cv5-HT7. For Cv5-HT2α expression, human embryonic kidney cells (HEK 293; ECACC, Salisbury, UK) were chosen.” for “Cv5-HT7.”
as §3, §4

blowfly salivary glands [4] = assay: 5-HT-induced TEP response of blowfly salivary glands, antagonists; format: cell-based, Calliphora vicina; set-up: key to suppression of the positive TEP phase: ++: complete; +: incomplete; -: no apparent effect; -/+: variable effect; key to suppression of the negative TEP phase: ++: high amplitude; +: low amplitude; -: no apparent effect; -/+: variable effect; details: for reversibility / suppression of the negative TEP phase / suppression of the positive TEP phase: TEP response evoked with 10 nM or 30 nM 5-HT
Procedure: (§5) The abdominal portions of salivary glands were dissected in physiological saline (in mM: 128 NaCl, 10 KCl, 2 CaCl2, 2.7 MgCl2, 3 Na-glutamate, 2.8 maleic acid, 10 D-glucose and 10 Tris-HCl, pH 7.2). Measurements of transepithelial potential (TEP) were performed by the oil-gap method with a DPA-2F differential amplifier (npi Electronic Instruments, Tamm, Germany). Data were sampled and digitized at 1 Hz (KUSB-3102 module for AD-conversion; Keithley, Germering, Germany) by using the software TestPoint (v4.1; Capital Equipment Corp, Billerica, MA, USA) for data acquisition and storage.

blowfly salivary glands [5] = assay: Transepithelial potential (TEP) of blowfly salivary glands, agonists; format: cell-based, Calliphora vicina; set-up: key to negative TEP phase / positive TEP phase: ++: high amplitude; +: low amplitude; -: no apparent effect; -/+: variable effect
Procedure: as §5

Cv5-HT7 [6] = target: T2, Cv5-HT7; assay: cAMP-dependent CNG channel Ca2+ influx (Fluo-4) in Cv5-HT7-expressing flpTM cells, agonists; format: cell-based; details: for Cv5-HT7 log EC50 / EC50: Fluo-4 signal, Cv5-HT7-expressing flpTM cells, 100 µM IBMX
Procedure: as §1, §2

[7] = in the presence of 6 nM 5-HT, read-out: Cv5-HT7 IC50
[8] = in the presence of 6 nM 5-HT, read-out: Cv5-HT7 log IC50 (converted)
[9] = in the presence of 100 nM 5-HT, read-out: Cv5-HT2α IC50
[10] = in the presence of 100 nM 5-HT, read-out: Cv5-HT2α log IC50 (converted)

T2 sequence (I7IA71 entry or part of it): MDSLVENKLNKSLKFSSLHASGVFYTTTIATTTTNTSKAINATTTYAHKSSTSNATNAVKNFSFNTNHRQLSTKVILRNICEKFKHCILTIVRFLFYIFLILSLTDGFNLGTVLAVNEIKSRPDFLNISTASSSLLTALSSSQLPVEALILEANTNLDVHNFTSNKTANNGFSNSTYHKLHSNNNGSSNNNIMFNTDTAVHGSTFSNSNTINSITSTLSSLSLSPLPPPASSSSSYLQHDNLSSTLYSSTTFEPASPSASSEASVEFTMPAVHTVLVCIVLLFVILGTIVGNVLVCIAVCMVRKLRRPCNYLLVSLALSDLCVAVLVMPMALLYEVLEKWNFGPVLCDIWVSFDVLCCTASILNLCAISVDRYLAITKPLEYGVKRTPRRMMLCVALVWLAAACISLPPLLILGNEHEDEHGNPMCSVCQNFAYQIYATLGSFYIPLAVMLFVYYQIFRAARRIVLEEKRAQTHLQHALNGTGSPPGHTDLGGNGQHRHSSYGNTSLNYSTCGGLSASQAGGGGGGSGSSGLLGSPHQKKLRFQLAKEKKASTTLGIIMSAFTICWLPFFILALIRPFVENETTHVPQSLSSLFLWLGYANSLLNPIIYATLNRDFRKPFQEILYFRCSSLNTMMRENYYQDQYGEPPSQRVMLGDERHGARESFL
T1 sequence (I7JA47 entry or part of it): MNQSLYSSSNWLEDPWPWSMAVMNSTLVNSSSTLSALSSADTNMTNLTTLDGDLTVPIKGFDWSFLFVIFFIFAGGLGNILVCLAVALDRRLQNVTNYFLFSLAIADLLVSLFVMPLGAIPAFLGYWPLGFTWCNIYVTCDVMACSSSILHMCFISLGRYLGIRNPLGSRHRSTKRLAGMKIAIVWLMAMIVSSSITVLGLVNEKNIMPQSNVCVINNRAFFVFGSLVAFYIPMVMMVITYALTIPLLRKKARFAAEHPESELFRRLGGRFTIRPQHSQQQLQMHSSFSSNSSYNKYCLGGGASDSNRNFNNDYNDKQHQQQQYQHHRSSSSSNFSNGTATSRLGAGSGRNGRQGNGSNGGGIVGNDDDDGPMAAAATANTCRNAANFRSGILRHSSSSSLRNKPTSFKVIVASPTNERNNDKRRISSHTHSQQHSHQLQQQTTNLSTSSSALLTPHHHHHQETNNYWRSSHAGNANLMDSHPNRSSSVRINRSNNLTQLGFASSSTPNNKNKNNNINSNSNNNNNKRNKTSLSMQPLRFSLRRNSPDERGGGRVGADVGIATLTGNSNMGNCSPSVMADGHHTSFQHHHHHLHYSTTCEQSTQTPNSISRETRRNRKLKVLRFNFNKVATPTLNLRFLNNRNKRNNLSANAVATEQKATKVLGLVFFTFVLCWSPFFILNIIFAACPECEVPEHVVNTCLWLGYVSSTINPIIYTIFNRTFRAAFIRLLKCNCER

## NCCc1c[nH]cn1 [histamine]
Cv5-HT2α [1]; 1 µM biogenic amine, non-transfected cells as control
  effect on [Ca2+]i in Cv5-HT2α-expressing cells: stimulated Ca^2+ signals

## O=C(c1ccc(F)cc1)C1CCN(CCn2c(=O)[nH]c3ccccc3c2=O)CC1 [ketanserin]
Cv5-HT7 [2]; [7]
  IC50: 1500 nM
Cv5-HT7 [2]; [8]
  IC50: 1450 nM
Cv5-HT2α [3]; [9]
  IC50: 14 µM
Cv5-HT2α [3]; [10]
  IC50: 14.1 µM

## O=C(CCCN1CCC2(CC1)C(=O)NCN2c1ccccc1)c1ccc(F)cc1 [spiperone]
Cv5-HT7 [2]; [7]
  IC50: 280 nM
Cv5-HT7 [2]; [8]
  IC50: 275 nM
Cv5-HT2α [3]; in the presence of 100 nM 5-HT
  Cv5-HT2α IC50: no effect
  Cv5-HT2α log IC50: no effect
Blowfly salivary glands [4]; 1-10 µM
  reversibility: yes
  suppression of the negative TEP phase: -
  suppression of the positive TEP phase: +
Blowfly salivary glands [4]; 1–10 µM
  effect on 5-HT-induced TEP response: reversibly but incompletely inhibited the positive phase

## CN(C)CCCSc1ccccc1NC(=O)/C=C/c1ccccc1 [cinanserin, cinanserin hydrochloride]
Cv5-HT7 [2]; [7]
  IC50: 400 nM
Cv5-HT7 [2]; [8]
  IC50: 398 nM
Cv5-HT2α [3]; [9]
  IC50: 30 µM
Cv5-HT2α [3]; [10]
  IC50: 29.5 µM
Blowfly salivary glands [4]; 10 µM
  effect on 5-HT-induced TEP response: reversibly but incompletely inhibited the positive phase
  reversibility: yes
  suppression of the negative TEP phase: -
  suppression of the positive TEP phase: +

## CC1CCN(CC[C@H]2CCCN2S(=O)(=O)c2cccc(O)c2)CC1 [SB-269970]
Cv5-HT7 [2]; in the presence of 6 nM 5-HT
  Cv5-HT7 log IC50: −8.06±0.21
  inhibitory efficacy at Cv5-HT7 (reduction of the 5-HT-evoked cellular response): ~15%
Cv5-HT7 [2]; [7]
  IC50: 9 nM
Cv5-HT2α [3]; in the presence of 100 nM 5-HT
  Cv5-HT2α log IC50: −4.27±0.30
Cv5-HT2α [3]; [9]
  IC50: 53 µM

## CCN(CC)C(=O)N[C@H]1C=C2c3cccc4[nH]cc(c34)C[C@H]2N(C)C1 [R(+)-lisuride]
Cv5-HT2α [1]; Ca2+-dependent Fluo-4 signal
  Cv5-HT2α EC50: no effect
  Cv5-HT2α log EC50: no effect
Blowfly salivary glands [5]; 30 nM
  TEP change of salivary glands: irreversible positive-going TEP change
Blowfly salivary glands [5]; 0.03-0.3 µM
  negative TEP phase: -
  positive TEP phase: ++
  reversibility: no (within 20 min)
Cv5-HT7 [6]
  Cv5-HT7 log EC50: −8.75±0.05
Cv5-HT7 [6]; read-out: Cv5-HT7 EC50
  EC50: 2 nM
Cv5-HT7 [6]; highest agonist concentrations, normalized to 5-HT maximum
  efficacy at Cv5-HT7 compared to 5-HT: very low efficacy

## Cc1ccc(N(CC2=NCCN2)c2cccc(O)c2)cc1 [phentolamine]
Cv5-HT7 [2]; [7]
  IC50: 4700 nM
Cv5-HT7 [2]; [8]
  IC50: 4680 nM
Cv5-HT2α [3]; [9]
  IC50: 198 µM
Cv5-HT2α [3]; [10]
  IC50: 200 µM

## Cc1nn(C)c(C)c1-c1cccc2c1CC[C@H](N(C)C)C2 [AS 19, (2S)-(+)-5-(1,3,5-Trimethylpyrazol-4-yl)-2-(dimethylamino)tetralin]
Cv5-HT2α [1]; Ca2+-dependent Fluo-4 signal
  Cv5-HT2α EC50: no effect
  Cv5-HT2α log EC50: no effect
Blowfly salivary glands [5]; 100 µM
  negative TEP phase: -
  positive TEP phase: -/+
  reversibility: yes
Blowfly salivary glands [5]; 1–100 µM
  TEP change of salivary glands: only positive-going changes in the TEP
Cv5-HT7 [6]
  Cv5-HT7 log EC50: −6.52±0.04
Cv5-HT7 [6]; read-out: Cv5-HT7 EC50
  EC50: 300 nM

## NCCc1c[nH]c2ccc(C(N)=O)cc12 [5-CT, 5-carboxamidotryptamine]
Cv5-HT2α [1]; Ca2+-dependent Fluo-4 signal
  Cv5-HT2α log EC50: −4.29±0.05
Cv5-HT2α [1]; Ca2+-dependent Fluo-4 signal, read-out: Cv5-HT2α EC50
  EC50: 51 µM
Blowfly salivary glands [5]; 0.3 µM
  TEP change of salivary glands: only a positive-going TEP change
  negative TEP phase: -
  positive TEP phase: +
  reversibility: yes
Blowfly salivary glands [5]; 10 µM
  negative TEP phase: ++
  positive TEP phase: ++
  reversibility: yes
Blowfly salivary glands [5]; concentrations 1 µM
  TEP change of salivary glands: biphasic TEP response
Cv5-HT7 [6]
  Cv5-HT7 log EC50: −6.37±0.02
Cv5-HT7 [6]; read-out: Cv5-HT7 EC50
  EC50: 430 nM

## COC(=O)[C@@H]1[C@H]2C[C@H]3c4[nH]c5ccccc5c4CCN3C[C@@H]2CC[C@@H]1O [yohimbine]
Cv5-HT7 [2]; Cv5-HT7 IC50, in the presence of 6 nM 5-HT
  IC50: 192000 nM
Cv5-HT7 [2]; Cv5-HT7 log IC50, in the presence of 6 nM 5-HT
  IC50: 191000 nM
Cv5-HT2α [3]; Cv5-HT2α IC50, in the presence of 100 nM 5-HT
  IC50: 2.9 µM
Cv5-HT2α [3]; Cv5-HT2α log IC50, in the presence of 100 nM 5-HT
  IC50: 2.88 µM

## CCCN(CCC)C1CCc2cccc(O)c2C1 (racemic) [8-OH-DPAT, (+/−)-8-hydroxy-2-(dipropylamino)tetralin]
Cv5-HT2α [1]; Cv5-HT2α EC50, Ca2+-dependent Fluo-4 signal
  EC50: 62 µM
Cv5-HT2α [1]; Cv5-HT2α log EC50, Ca2+-dependent Fluo-4 signal
  EC50: 61.7 µM
Cv5-HT7 [6]; read-out: Cv5-HT7 EC50
  EC50: 7900 nM
Cv5-HT7 [6]; read-out: Cv5-HT7 log EC50 (converted)
  EC50: 7940 nM

## CSc1ccc2c(c1)C(N1CCN(C)CC1)Cc1ccccc1S2 (centres unmarked) [methiothepin]
Cv5-HT7 [2]; high concentrations (10 µM)
  antagonistic effect on Cv5-HT7: slight antagonistic effect
Cv5-HT7 [2]; in the presence of 6 nM 5-HT
  Cv5-HT7 IC50: not calculable
  Cv5-HT7 log IC50: not calculable
Cv5-HT2α [3]; in the presence of 100 nM 5-HT
  Cv5-HT2α log IC50: −5.92±0.06
Cv5-HT2α [3]; [9]
  IC50: 1.2 µM
Blowfly salivary glands [4]; 3 µM
  reversibility: no
  suppression of the negative TEP phase: -/+
  suppression of the positive TEP phase: ++
Blowfly salivary glands [4]; ≥1 µM
  effect on 5-HT-induced TEP response: completely abolished the positive TEP phase

## CN1CCN(C2=Nc3cc(Cl)ccc3Nc3ccccc32)CC1 [clozapine]
Blowfly salivary glands [4]; 1 µM, 30 nM 5-HT
  effect on 5-HT-induced TEP response: completely and selectively inhibited the positive TEP phase
Blowfly salivary glands [4]; 1 µM
  reversibility: yes
  suppression of the negative TEP phase: -
  suppression of the positive TEP phase: ++
